Measured values: patent US20070172844A1, “Individualized cancer treatments” (University of South Florida, priority 2005, published 2007)

How the values were obtained:
[1] = test system: adriamycin treated patients; details: Evans et al data set, n=122; cited from earlier work
[2] = test system: ovarian cancer cell lines; experiment: Cell proliferation assays (MTS, percentage reduction in growth at 120 hr), Example 1; assay type: cell-based, human; details: inhibition of proliferation vs probability of pathway activation
Protocol: Cell lines and RNA extraction-The ovarian cancer cell lines, OV90, TO[…], and TO[…] were grown as recommended by the supplier (ATCC, Rockville, Md.). FUOV1, a human ovarian carcinoma, was grown according to the supplier (DSMZ, Braunschweig, Germany). Eight additional cell lines (C13, OV2008, A2780CP, A2780S, IGROV1, T8, OVCAR5 and IMCC3) were provided by Dr. Patricia Kruk, Department of Pathology, College of Medicine (University of South Florida, Tampa, Fla.). […] All tissue culture reagents were obtained from Sigma Aldrich (St. Louis, Mo.). Total RNA was extracted from each cell line and assayed on the Human 133 plus 2.0 arrays. Cell proliferation assays-Assays measuring cell proliferation and the effects of targeted agents have been described previously^36. Briefly, growth curves for the ovarian cancer cell lines were carried out by plating 300-4000 cells per well of a 96-well plate. The growth of cells at 12 hr time points (from t=12 hrs) was determined using the CellTiter 96 Aqueous One Solution Cell Proliferation Assay Kit by Promega, which is a colorimetric method for determining the number of growing cells. […] The degree of proliferation inhibition was plotted as a function of probability of Src pathway activation or E2F3 pathway activation.

[3] = test system: ovarian cancer cell lines; experiment: Cell proliferation assays (percent reduction in growth at 96 hrs), 12 ovarian cancer cell lines, Examples 2 and 3; assay type: cell-based, human
Protocol: Cell Culture—All liquid media as well as the Thiazolyl Blue Tetrazolium Bromide were purchased from Sigma Aldrich (St. Louis, Mo.). The Src inhibitor SU6656 and the Topotecan hydrochloride were purchased from Calbiochem (San Diego, Calif.). The ovarian cancer cell lines, OV90, OVCA5, TOV21G, and TOV12D were grown as recommended by the supplier (ATCC, Rockville, Md.). FUOV1, a human ovarian carcinoma, was grown according to the supplier (DSMZ; Braunschweig, Germany). Seven additional cell lines (C13, OV2008, A2780CP, A2780S, IGROV1, T8, IMCC3) were provided by Dr. Patricia Kruk, College of Medicine (University of South Florida, Fla.). All of those seven cell lines were grown in RPMI 1640, supplemented with 10% Fetal Bovine Serum, 1% sodium pyruvate, and 1% non essential amino acids. All tissue culture reagents were obtained from Sigma (UK).
Cell proliferation assays—Growth curves for cells were produces out by plating at 500-10,000 cells per well of a 96-well plate. The growth of cells at 12 hr time points (from t=12 hrs) was determined using the CellTiter 96 Aqueous One 23 Solution Cell Proliferation Assay Kit by Promega, which is a calorimetric method for determining the number of growing cells. […] Cumulatively, these experiments determined the concentration of cells to use for each cell line, as well as the dosing range of the inhibitors. […] Sensitivity to topotecan and a Src inhibitor (SU6656), both single alone and combined was determined by quantifying the percent reduction in growth (versus DMSO controls) at 96 hrs. […]
In the analysis of the various oncogenic pathways, analysis of expression data was done as previously described in Bild A, et al., Nature 439:353-357, 2006 and West M, et al., Proc. Natl. Acad. Sci. USA 2001;98(20):11462-7). […] Each oncogenic signature summarizes its constituent genes as a single expression profile, and is derived as the first principal component of that set of genes (the factor corresponding to the largest singular value) as determined by a singular value decomposition. […]

[4] = test system: breast cancer patients; details: Breast Tumor Data; published neoadjuvant data sets (MDACC TFAC n=51, complete pathologic response; single agent docetaxel n=24); cited from earlier work
[5] = test system: advanced ovarian cancer patients; experiment: Clinical response to salvage chemotherapy (topotecan, paclitaxel, docetaxel); assay type: in vivo, human; details: for Actual Overall response: Ovarian, single agent salvage therapy
Description: Classification of topotecan response—Response to therapy was retrospectively evaluated from the medical record using standard criteria for patients with measurable disease, based upon WHO guidelines (Miller A B, et al., Cancer 1981;47:207-14). CA-125 was used to classify responses only in the absence of a measurable lesion; CA-125 response criteria were based on established guidelines (Miller A B, et al. Cancer 1981;47:207-14; Rustin G J, et al., Ann. Onco. 110:21-27, 1999). […] A complete response (CR) was defined as a complete disappearance of all measurable and assessable disease or, in the absence of measurable lesions, a normalization of the CA-125 level following topotecan therapy. A partial response (PR) was considered a 50% or greater reduction in the product obtained from measurement of each bi-dimensional lesion for at least 4 weeks or a drop in the CA-125 by at least 50% for at least 4 weeks. Progressive disease (PD) was defined as a 50% or greater increase in the product from any lesion documented within 8 weeks of initiation of therapy, the appearance of any new lesion within 8 weeks of initiation of therapy, or any increase in the CA-125 from baseline at initiation of therapy. Stable disease (SD) was defined as disease not meeting any of the above criteria.
Tissues—We measured expression of 22,283 genes in 12 ovarian cancer cell lines and 48 advanced (FIGO stage III/IV) serous epithelial ovarian carcinomas using Affymetrix U133A GeneChips. All ovarian cancers were obtained at initial cytoreductive surgery from patients treated at H. Lee Moffitt Cancer Center & Research Institute or Duke University Medical Center. All patients received topotecan as salvage chemotherapy after initial platinum based therapy. All tissues were collected under the auspices of a respective institutional IRB approved protocol with written informed consent.
Classification of topotecan response in tumors—Response to therapy was retrospectively evaluated from the medical record using standard criteria for patients with measurable disease, based upon WHO guidelines ((Miller A B, et al., Cancer 1981;47:207-14). CA-125 was used to classify responses only in the absence of a measurable lesion; CA-125 response criteria were based on established guidelines (Miller A B, et al. Cancer 1981;47:207-14; Rustin G J, et al., Ann. Onco. 110:21-27, 1999). A complete responder was defined as a complete disappearance of all measurable and assessable disease or, in the absence of measurable lesions, a normalization of the CA-125 level following topotecan therapy. Non-responders/patients with progressive disease (PD) were defined as a 50% o or greater increase in the primary lesion(s) documented within 8 weeks of initiation of therapy or the appearance of any new lesion within 8 weeks of initiation of therapy.
Full details of the methods used for RNA extraction and development of gene expression signatures representing deregulation of oncogenic pathways in the tumor samples are recently described.^36 Response to therapy was evaluated using standard criteria for patients with measurable disease, based upon WHO guidelines.^28

[6] = test system: ovarian cancer cell lines; experiment: Cell proliferation assay (MTT, 96 hrs), topotecan and SU6656 in 13 ovarian cell lines; assay type: cell-based, human; details: 13 ovarian cancer cell lines
Protocol: Cell proliferation assays. Growth curves for cells were produced by plating 500-10,000 cells per well in 96-well plates. The growth of cells at 12 hr time points (from t=12 hrs) was determined using the CellTiter 96 Aqueous One 23 Solution Cell Proliferation Assay Kit by Promega, which is a colorimetric method for determining the number of growing cells.^36 The growth curves plot the growth rate of cells vs. each concentration of drug tested against individual cell lines. Cumulatively, these experiments determined the concentration of cells to use for each cell line, as well as the dosing range of the inhibitors. The final dose-response curves in our experiments plot the percent of cell population responding to the chemotherapy vs. the concentration of the drug for each cell line. Sensitivity to docetaxel and a phosphatidylinositol 3-kinase (PI3 kinase) inhibitor (LY-294002)^36 in 17 lung cell lines, and topotecan and a Src inhibitor (SU6656) in 13 ovarian cell lines was determined by quantifying the percent reduction in growth (versus DMSO controls) at 96 hrs using a standard MTT colorimetric assay.^36 Concentrations used ranged from 1-10 nM for docetaxel, 300 nM-10 μM (SU6656), and 300 nM-[…] for LY-294002. All experiments were repeated at least three times.

COc1cccc2c1C(=O)c1c(O)c3c(c(O)c1C2=O)C[C@@](O)(C(=O)CO)C[C@@H]3O[C@H]1C[C@H](N)[C@H](O)[C@H](C)O1 [Adriamycin, adriamycin]
Actual Overall response [1]: 24/122 (19.6%)

CC[C@H](CO)Nc1nc(NCc2ccccc2)c2ncn(C(C)C)c2n1 [CYC202/R-Roscovitine]
relationship between predicted pathway deregulation (Src or E2F3) and drug sensitivity [2]: clear and statistically significant relationship
relationship between predicted adriamycin resistance and sensitivity to cdk inhibitor ([3]; ovarian cancer cell lines): coincides with sensitivity to R-Roscovitine

CC(=O)O[C@@]12CO[C@@H]1C[C@H](O)[C@@]1(C)C(=O)[C@H](O)C3=C(C)[C@@H](OC(=O)[C@H](O)[C@@H](NC(=O)OC(C)(C)C)c4ccccc4)C[C@@](O)([C@@H](OC(=O)c4ccccc4)[C@H]21)C3(C)C [Docetaxel, docetaxel]
Actual Overall response [4]: 13/24 (54.1%)
Actual Overall response [5]: 7/14 (50%)

CC(=O)O[C@H]1C(=O)[C@@]2(C)[C@H]([C@H](OC(=O)c3ccccc3)[C@]3(O)C[C@H](OC(=O)[C@H](O)[C@@H](NC(=O)c4ccccc4)c4ccccc4)C(C)=C1C3(C)C)[C@]1(OC(C)=O)CO[C@@H]1C[C@@H]2O [Paclitaxel, paclitaxel]
Actual Overall response [5]: 20/35 (57.1%)

CN(C)S(=O)(=O)c1ccc2c(c1)/C(=C/c1cc3c([nH]1)CCCC3)C(=O)N2 [SU6656]
relationship between predicted pathway deregulation (Src or E2F3) and drug sensitivity [2]: clear and statistically significant relationship
relationship between probability of topotecan resistance and sensitivity to Src pathway inhibitor [6]: significant linear relationship
relationship between predicted src-pathway deregulation and response to src-inhibitor alone ([3]; 12 ovarian cancer cell lines): clear relationship
effect of Src inhibitor on sensitivity to topotecan ([3]; growth inhibition, 12 ovarian cancer cell lines): increases ovarian cancer cell line sensitivity to topotecan

CC[C@@]1(O)C(=O)OCc2c1cc1n(c2=O)Cc2cc3c(CN(C)C)c(O)ccc3nc2-1 [Topotecan, topotecan]
Actual Overall response [5]: 20/48 (41.6%)
patients classified as topotecan non-responders ([5]; of 48 patients, non-responder = PD): 18
patients classified as topotecan responders ([5]; of 48 patients, responder = CR, PR or SD): 30

N.N.[Cl][Pt][Cl] [cisplatin]
relationship between predicted pathway deregulation (Src or E2F3) and drug sensitivity [2]: no evident relationship
